Measured values taken from ChEMBL document CHEMBL5584341, “Discovery of Potent, Specific, and Orally Available NLRP3 Inflammasome Inhibitors Based on Pyridazine Scaffolds for the Treatment of Septic Shock and Peritonitis” (J Med Chem, 2024).

Legend:
[1] = Inhibition of IL-1beta release in PMA-differentiated/ LPS and nigericin stimulated human THP-1 cells pretreated with LPS for 3 hrs followed by incubation with compound for 40 mins and later stimulated with nigericin for 40 mins by ELISA; type: functional, cell-based
[2] = Inhibition of IL-1beta release in PMA-differentiated/ LPS and nigericin stimulated human THP-1 cells at 0.5 uM pretreated with LPS for 3 hrs followed by incubation with compound for 40 mins and later stimulated with nigericin for 40 mins by ELISA; type: functional; settings: THP-1, 1.333 h, time 80 min
[3] = Inhibition of IL-1beta release in PMA-differentiated/ LPS and nigericin stimulated human THP-1 cells at 0.1 uM pretreated with LPS for 3 hrs followed by incubation with compound for 40 mins and later stimulated with nigericin for 40 mins by ELISA; type: functional; settings: THP-1, 1.333 h, time 80 min
[4] = molecular target: hERG (KCNH2) (Homo sapiens, UniProt Q12809); assay: Inhibition of human ERG at 20 uM relative to control
Chain of hERG (KCNH2) (Q12809 whole entry): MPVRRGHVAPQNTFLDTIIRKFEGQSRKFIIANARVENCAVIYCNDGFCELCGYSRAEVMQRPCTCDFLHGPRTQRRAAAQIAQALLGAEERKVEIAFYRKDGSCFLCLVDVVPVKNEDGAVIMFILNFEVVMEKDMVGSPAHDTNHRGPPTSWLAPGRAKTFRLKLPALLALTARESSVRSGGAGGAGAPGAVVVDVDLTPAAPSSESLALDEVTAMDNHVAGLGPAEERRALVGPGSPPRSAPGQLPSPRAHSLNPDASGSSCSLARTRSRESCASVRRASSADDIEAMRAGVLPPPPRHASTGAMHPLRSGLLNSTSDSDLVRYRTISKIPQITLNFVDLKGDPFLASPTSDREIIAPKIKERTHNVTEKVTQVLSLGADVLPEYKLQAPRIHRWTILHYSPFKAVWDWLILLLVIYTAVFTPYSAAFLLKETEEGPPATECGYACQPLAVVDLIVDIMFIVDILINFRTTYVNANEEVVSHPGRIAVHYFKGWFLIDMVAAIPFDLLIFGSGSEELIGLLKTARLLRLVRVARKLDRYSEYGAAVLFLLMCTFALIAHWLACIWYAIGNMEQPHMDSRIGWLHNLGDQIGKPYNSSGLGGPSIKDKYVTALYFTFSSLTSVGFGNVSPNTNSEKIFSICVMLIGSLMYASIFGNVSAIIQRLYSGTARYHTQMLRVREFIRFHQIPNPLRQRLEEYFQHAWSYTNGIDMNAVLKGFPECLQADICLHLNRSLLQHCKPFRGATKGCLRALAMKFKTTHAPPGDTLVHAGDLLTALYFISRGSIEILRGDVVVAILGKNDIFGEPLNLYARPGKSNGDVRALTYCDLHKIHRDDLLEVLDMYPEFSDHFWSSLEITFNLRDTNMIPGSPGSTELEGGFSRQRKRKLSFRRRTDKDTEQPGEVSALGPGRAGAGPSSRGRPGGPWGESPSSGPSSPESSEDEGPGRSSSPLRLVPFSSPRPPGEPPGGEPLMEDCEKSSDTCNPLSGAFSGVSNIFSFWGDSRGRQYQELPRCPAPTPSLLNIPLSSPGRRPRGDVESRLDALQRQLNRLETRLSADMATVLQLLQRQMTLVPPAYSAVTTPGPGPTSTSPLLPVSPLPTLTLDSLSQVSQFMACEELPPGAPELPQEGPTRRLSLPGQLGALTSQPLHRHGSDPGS

[5] = system: Mus musculus; assay: Antiinflammatory activity against LPS induced septic shock in BALB/c mouse assessed as increase in survival rate at 25 mg/kg, ip pretreated for 1 hr followed by LPS stimulation and measured after 72 hrs; type: functional; settings: time 73 hrs
[6] = Metabolic stability in human liver microsomes assessed as half life at 10 uM […] in presence of NADPH by LC-MS/MS analysis; type: ADME, Microsome
[7] = Metabolic stability in human liver microsomes assessed as intrinsic clearance per g protein at 10 uM […] in presence of NADPH by LC-MS/MS analysis; type: ADME, Microsome

SMILES	IC50 [1]	inhibition at 0.5 µM [2]	inhibition at 0.1 µM [3]	inhibition at 20 µM [4]	Activity [5]	half-life at 10 µM [6]	intrinsic clearance [7]
Oc1cc(C(F)(F)F)ccc1-c1nnc(N[C@@H]2CCCN(C3CC(F)(F)C3)C2)c2c1C1CCC2C1 (some centres undefined)	76 nM	96.3%	72.8%				
Oc1cc(C(F)(F)F)ccc1-c1nnc(N[C@@H]2CCCN(CC3CC3)C2)c2c1C1CCC2C1 (some centres undefined)	87 nM	97.2%	83.9%				
Oc1cc(Cl)ccc1-c1nnc(N[C@@H]2CCCN(C3CC(F)(F)C3)C2)c2c1C1CCC2CC1	26 nM	95.3%	88%	23.9%			
Oc1cc(C(F)(F)F)ccc1-c1nnc(N[C@@H]2CCC[C@H](O)C2)c2c1C1CCC2CC1		90.8%	45%				
Oc1cc(C(F)(F)F)ccc1-c1nnc(N[C@@H]2CCCN(C3CC(F)(F)C3)C2)c2c1C1CCC2CC1	25 nM	97.4%	96.3%	15.5%			
CN1CCC[C@H](Nc2nnc(-c3ccc(C(F)(F)F)cc3O)c3c2C2CCC3C2)C1 (some centres undefined)		3.09%	5.31%				
CN1CCC[C@@H](Nc2nnc(-c3ccc(C(F)(F)F)cc3O)c3c2C2CCC3CC2)C1	38 nM	97.4%	97%				
CC(C)(F)CN1CCC[C@@H](Nc2nnc(-c3ccc(C(F)(F)F)cc3O)c3c2C2CCC3CC2)C1		95.8%	55.4%				
Oc1cc(C(F)(F)F)ccc1-c1nnc(N[C@@H]2CCCC[C@H]2O)c2c1C1CCC2CC1	124 nM	85.8%	35.9%	-1.93%			
CC(C)(O)c1coc(S(=O)(=O)NC(=O)Nc2c3c(cc4c2CCC4)CCC3)c1	8 nM	99.3%	99.2%		60%		
Oc1c(-c2nnc(N[C@@H]3CCCN(C4CC(F)(F)C4)C3)c3c2C2CCC3CC2)ccc2sccc12	57 nM	96.9%	61.9%	69.4%			
CN1CCO[C@H](CNc2nnc(-c3ccc4occc4c3O)c3c2C2CCC3CC2)C1		36.5%	9.42%				
Oc1cc(C(F)(F)F)ccc1-c1nnc(N[C@@H]2CCCN(C3COC3)C2)c2c1C1CCC2CC1		96.5%	52.9%				
CC(F)(F)CN1CCC[C@@H](Nc2nnc(-c3ccc(C(F)(F)F)cc3O)c3c2C2CCC3CC2)C1		49.9%	29%				
Oc1c(-c2nnc(N[C@@H]3CCOC3)c3c2C2CCC3CC2)ccc2occc12		30%	25%				
Oc1cc(C(F)(F)F)ccc1-c1nnc(N[C@@H]2CCCC[C@H]2O)c2c1C1CCC2C1 (some centres undefined)	79 nM	95.6%	43.5%	57.7%			
Cc1ccc(-c2nnc(N[C@@H]3CCCN(C4CC(F)(F)C4)C3)c3c2C2CCC3CC2)c(O)c1	53 nM	96.6%	60.2%	63.8%			
Oc1cc(OC(F)(F)F)ccc1-c1nnc(N[C@@H]2CCCN(C3CC(F)(F)C3)C2)c2c1C1CCC2CC1		93.2%	46.5%				
N#Cc1ccc(-c2nnc(N[C@@H]3CCCN(C4CC(F)(F)C4)C3)c3c2C2CCC3CC2)c(O)c1		91.5%	51.7%				
Cc1c(N[C@@H]2CCCC[C@H]2O)nnc(-c2ccc(C(F)(F)F)cc2O)c1C	12 nM	98.3%	97.8%				
Oc1c(-c2nnc(N[C@@H]3CCCN(C4CC(F)(F)C4)C3)c3c2C2CCC3CC2)ccc2occc12	2 nM	98.6%	98.5%	-1.03%		0.745 h	31 mL/min

SMILES	IC50 [1]	inhibition at 0.5 µM [2]	inhibition at 0.1 µM [3]	inhibition at 20 µM [4]	Activity [5]	half-life at 10 µM [6]	intrinsic clearance [7]
N#CCN1CCC[C@@H](Nc2nnc(-c3ccc(C(F)(F)F)cc3O)c3c2C2CCC3C2)C1 (some centres undefined)		77%	7.6%				
Oc1cc(C(F)(F)F)ccc1-c1nnc(N[C@@H]2CCCC[C@H]2O)c2c1CCCC2	6 nM	98.3%	92.4%	84.1%			
Oc1cc(C(F)(F)F)ccc1-c1nnc(N[C@@H]2CCCN(C3CCOC3)C2)c2c1C1CCC2CC1 (some centres undefined)	49 nM	96.8%	95.2%				
Oc1cc(C(F)(F)F)ccc1-c1nnc(N[C@@H]2CCCN(C3CCC3)C2)c2c1C1CCC2CC1	27 nM	97.1%	96.8%				
[2H]C([2H])([2H])C([2H])([2H])N1CCC[C@@H](Nc2nnc(-c3ccc4occc4c3O)c3c2C2CCC3CC2)C1	1 nM	98.5%	98.6%	85.8%		> 2 h	< 12 mL/min
Oc1cc(C(F)(F)F)ccc1-c1nnc(N[C@@H]2CCCN(C3CCC3)C2)c2c1C1CCC2C1 (some centres undefined)	49 nM	97.2%	94.6%				
CN1CCC[C@@H](Nc2nnc(-c3ccc(C(F)(F)F)cc3O)c3c2C2CCC3C2)C1 (some centres undefined)	38 nM	96.9%	95%				
CN1CC[C@@H](Nc2nnc(-c3ccc(C(F)(F)F)cc3O)c3c2C2CCC3C2)C1 (some centres undefined)		32.7%	12.1%				
CN1C[C@H](Nc2nnc(-c3ccc4occc4c3O)c3c2C2CCC3CC2)CC(F)(F)C1		97.7%	55.5%				
OC[C@@H](O)CNc1nnc(-c2ccc(C(F)(F)F)cc2O)c2c1C1CCC2CC1		74.5%	20.3%				
Oc1c(-c2nnc(N[C@@H]3CCCC[C@H]3O)c3c2C2CCC3CC2)ccc2occc12	6 nM	96.3%	94.9%	60%		> 2 h	< 12 mL/min
Oc1cc(C(F)(F)F)ccc1-c1nnc(N[C@@H]2CCCN(CC(F)F)C2)c2c1C1CCC2CC1		73.8%	19.7%				
Oc1c(-c2nnc(N[C@@H]3CCC[C@H](O)C3)c3c2C2CCC3CC2)ccc2occc12	4 nM	98.2%	97.2%	59%		1.16 h	20 mL/min
CC(CO)N1CCC[C@@H](Nc2nnc(-c3ccc4occc4c3O)c3c2C2CCC3CC2)C1 (some centres undefined)	4 nM	99%	98.8%	71%		> 2 h	< 12 mL/min
CN1C[C@H](F)C[C@@H](Nc2nnc(-c3ccc4occc4c3O)c3c2C2CCC3CC2)C1	5 nM	98.6%	98.6%	78.5%		> 2 h	< 12 mL/min
Oc1cc(C(F)(F)F)ccc1-c1nnc(N[C@@H]2CCCC[C@H]2O)c2ccccc12	9 nM	97.8%	98.3%	86%			
OCCN1CCC[C@@H](Nc2nnc(-c3ccc(C(F)(F)F)cc3O)c3c2C2CCC3CC2)C1	42 nM	99.2%	98.6%				
Oc1cc(C(F)(F)F)ccc1-c1nnc(N[C@@H]2CCCNC2)c2c1C1CCC2CC1	103 nM	94.3%	46.5%				
CCN1CCC[C@@H](Nc2nnc(-c3ccc4occc4c3O)c3c2C2CCC3CC2)C1	1 nM	98.3%	98.6%	85.3%		> 2 h	< 12 mL/min
CCN1CCC[C@@H](Nc2nnc(-c3ccc(C(F)(F)F)cc3O)c3c2C2CCC3C2)C1 (some centres undefined)	27 nM	96.3%	92.5%				
